Reference: ChEMBL document CHEMBL1275577, “Study of the in vitro activities of rifaximin and comparator agents against 536 anaerobic intestinal bacteria from the perspective of potential utility in pathology involving bowel flora” (Antimicrob Agents Chemother, 2009)
Values after ≈ are worked out from the molar mass of the structure shown.

Tests used:
Format in all cases: functional
[1] = tested on: Lactobacillus acidophilus; experiment: Antimicrobial activity against Lactobacillus acidophilus by Wadsworth agar dilution method in presence of beta-lactamase inhibitor Sulbactam
Atopobium minutum = experiment: Antimicrobial activity against Atopobium minutum by Wadsworth agar dilution method in presence of beta-lactamase inhibitor Sulbactam
Clostridium hathewayi = experiment: Antimicrobial activity against Clostridium hathewayi by Wadsworth agar dilution method in presence of beta-lactamase inhibitor Sulbactam; settings: Hungatella hathewayi
[2] = tested on: Paeniclostridium sordellii; experiment: Antimicrobial activity against Clostridium sordellii by Wadsworth agar dilution method in presence of beta-lactamase inhibitor Sulbactam; settings: Paraclostridium sordellii
Clostridium butyricum = experiment: Antimicrobial activity against Clostridium butyricum by Wadsworth agar dilution method in presence of beta-lactamase inhibitor Sulbactam
[3] = tested on: Enterocloster clostridioformis; experiment: Antimicrobial activity against Clostridium clostridioforme by Wadsworth agar dilution method in presence of beta-lactamase inhibitor Sulbactam
Eubacterium saburreum = experiment: Antimicrobial activity against Eubacterium saburreum by Wadsworth agar dilution method in presence of beta-lactamase inhibitor Sulbactam; settings: Lachnoanaerobaculum saburreum
[4] = tested on: Bifidobacterium pseudolongum; experiment: Antimicrobial activity against Bifidobacterium pseudolongum by Wadsworth agar dilution method in presence of beta-lactamase inhibitor Sulbactam
Fusobacterium mortiferum = experiment: Antimicrobial activity against Fusobacterium mortiferum by Wadsworth agar dilution method
Clostridium bolteae [5] = experiment: Antimicrobial activity against Clostridium bolteae by Wadsworth agar dilution method in presence of beta-lactamase inhibitor Sulbactam; settings: Enterocloster bolteae
Tissierella praeacuta = experiment: Antimicrobial activity against Clostridium hastiforme by Wadsworth agar dilution method in presence of beta-lactamase inhibitor Sulbactam
Prevotella corporis = experiment: Antimicrobial activity against Prevotella corporis by Wadsworth agar dilution method in presence of beta-lactamase inhibitor Sulbactam
Bacteroides fragilis = experiment: Antimicrobial activity against Bacteroides fragilis by Wadsworth agar dilution method in presence of beta-lactamase inhibitor Sulbactam
[6] = tested on: Parabacteroides distasonis; experiment: Antimicrobial activity against Parabacteroides distasonis by Wadsworth agar dilution method in presence of beta-lactamase inhibitor Sulbactam
Bifidobacterium breve = experiment: Antimicrobial activity against Bifidobacterium breve by Wadsworth agar dilution method in presence of beta-lactamase inhibitor Sulbactam
Desulfovibrio piger = experiment: Antimicrobial activity against Desulfovibrio piger by Wadsworth agar dilution method in presence of beta-lactamase inhibitor Sulbactam
Clostridium sp. = experiment: Antimicrobial activity against Clostridium sp. by Wadsworth agar dilution method in presence of beta-lactamase inhibitor Sulbactam
Cutibacterium acnes = experiment: Antimicrobial activity against Propionibacterium acnes by Wadsworth agar dilution method in presence of beta-lactamase inhibitor Sulbactam
Desulfovibrio sp. = experiment: Antimicrobial activity against Desulfovibrio sp. by Wadsworth agar dilution method in presence of beta-lactamase inhibitor Sulbactam
[7] = tested on: Paraclostridium bifermentans; experiment: Antimicrobial activity against Clostridium bifermentans by Wadsworth agar dilution method in presence of beta-lactamase inhibitor Sulbactam
Fusobacterium nucleatum = experiment: Antimicrobial activity against Fusobacterium nucleatum by Wadsworth agar dilution method
[8] = tested on: Propionibacterium propionicum; experiment: Antimicrobial activity against Propionibacterium propionicum by Wadsworth agar dilution method; settings: Arachnia propionica
Ruminococcus obeum = experiment: Antimicrobial activity against Ruminococcus obeum by Wadsworth agar dilution method; settings: Blautia obeum
[9] = tested on: Fusobacterium necrophorum; experiment: Antimicrobial activity against Fusobacterium necrophorum by Wadsworth agar dilution method
Propionibacterium avidum = experiment: Antimicrobial activity against Propionibacterium avidum by Wadsworth agar dilution method; settings: Cutibacterium avidum
Clostridium nexile = experiment: Antimicrobial activity against Clostridium nexile by Wadsworth agar dilution method; settings: Faecalimonas nexilis
Prevotella bivia = experiment: Antimicrobial activity against Prevotella bivia by Wadsworth agar dilution method
Clostridium bartlettii = experiment: Antimicrobial activity against Clostridium bartlettii by Wadsworth agar dilution method; settings: Intestinibacter bartlettii
Bifidobacterium bifidum = experiment: Antimicrobial activity against Bifidobacterium bifidum by Wadsworth agar dilution method
Parabacteroides merdae = experiment: Antimicrobial activity against Parabacteroides merdae by Wadsworth agar dilution method
Clostridium leptum = experiment: Antimicrobial activity against Clostridium leptum by Wadsworth agar dilution method
Clostridium symbiosum = experiment: Antimicrobial activity against Clostridium symbiosum by Wadsworth agar dilution method
Fusobacterium sp. = experiment: Antimicrobial activity against Fusobacterium sp. by Wadsworth agar dilution method
Schaalia odontolytica = experiment: Antimicrobial activity against Actinomyces odontolyticus by Wadsworth agar dilution method
Lactobacillus jensenii = experiment: Antimicrobial activity against Lactobacillus jensenii by Wadsworth agar dilution method
Flavonifractor plautii = experiment: Antimicrobial activity against Clostridium orbiscindens by Wadsworth agar dilution method
Bifidobacterium dentium = experiment: Antimicrobial activity against Bifidobacterium dentium by Wadsworth agar dilution method
Clostridium cadaveris = experiment: Antimicrobial activity against Clostridium cadaveris by Wadsworth agar dilution method
[10] = tested on: Enterocloster clostridioformis; experiment: Antimicrobial activity against Clostridium clostridioforme by Wadsworth agar dilution method
Clostridium bolteae [11] = experiment: Antimicrobial activity against Clostridium bolteae by Wadsworth agar dilution method; settings: Enterocloster bolteae

How did the MIC [1] turn out when `CC1(C)S[C@@H]2[C@H](NC(=O)[C@H](N)c3ccccc3)C(=O)N2[C@H]1C(=O)O` [AMPICILLIN] was run?
The MIC was 0.25 µg/mL.

And the MIC50 [1]?
The MIC50 was 0.25 µg/mL.

What about the MIC90 [1] of the same molecule?
The MIC90 was 2 µg/mL.

And the MIC (Atopobium minutum)?
The MIC was 0.25 µg/mL.

And the MIC50 (Atopobium minutum)?
The MIC50 was 0.25 µg/mL.

What about the MIC90 (Atopobium minutum) of the same molecule?
Its MIC90 is 2 µg/mL.

What about the MIC50 (Clostridium hathewayi) of the same molecule?
The MIC50 was 2 µg/mL.

And the MIC90 (Clostridium hathewayi)?
The MIC90 was 2 µg/mL.

What about the MIC [2] of the same molecule?
Its MIC is 0.25 µg/mL.

And the MIC50 [2]?
Its MIC50 is 0.25 µg/mL.

And the MIC90 [2]?
The MIC90 was 1 µg/mL.

And the MIC (Clostridium butyricum)?
Its MIC is 0.25 µg/mL.

What about the MIC50 (Clostridium butyricum) of the same molecule?
The MIC50 was 0.25 µg/mL.

What about the MIC90 (Clostridium butyricum) of the same molecule?
Its MIC90 is 1 µg/mL.

What about the MIC [3] of the same molecule?
The MIC was 1 µg/mL.

What about the MIC50 [3] of the same molecule?
The MIC50 was 1 µg/mL.

What about the MIC90 [3] of the same molecule?
Its MIC90 is 16 µg/mL.

What about the MIC (Eubacterium saburreum) of the same molecule?
The MIC was 0.25 µg/mL.

What about the MIC50 (Eubacterium saburreum) of the same molecule?
The MIC50 was 0.25 µg/mL.

What about the MIC90 (Eubacterium saburreum) of the same molecule?
The MIC90 was 2 µg/mL.

What about the MIC [4] of the same molecule?
Its MIC is 0.25 µg/mL.

And the MIC50 [4]?
Its MIC50 is 0.25 µg/mL.

What about the MIC90 [4] of the same molecule?
Its MIC90 is 2 µg/mL.

What about the MIC50 (Fusobacterium mortiferum) of the same molecule?
Its MIC50 is 1 µg/mL (≈ 2.86 µM).

And the MIC90 (Fusobacterium mortiferum)?
Its MIC90 is 4 µg/mL (≈ 11.4 µM).

What about the MIC (Clostridium bolteae [5]) of the same molecule?
Its MIC is 0.25 µg/mL.

What about the MIC50 (Clostridium bolteae [5]) of the same molecule?
The MIC50 was 0.25 µg/mL.

What about the MIC90 (Clostridium bolteae [5]) of the same molecule?
The MIC90 was 1 µg/mL.

And the MIC (Tissierella praeacuta)?
Its MIC is 0.25 µg/mL.

What about the MIC50 (Tissierella praeacuta) of the same molecule?
The MIC50 was 0.25 µg/mL.

What about the MIC90 (Tissierella praeacuta) of the same molecule?
Its MIC90 is 1 µg/mL.

And the MIC50 (Prevotella corporis)?
The MIC50 was 0.5 µg/mL.

What about the MIC90 (Prevotella corporis) of the same molecule?
The MIC90 was 4 µg/mL.

What about the MIC50 (Bacteroides fragilis) of the same molecule?
The MIC50 was 1 µg/mL.

And the MIC90 (Bacteroides fragilis)?
Its MIC90 is 16 µg/mL.

What about the MIC50 [6] of the same molecule?
Its MIC50 is 16 µg/mL.

And the MIC90 [6]?
The MIC90 was 32 µg/mL.

What about the MIC (Bifidobacterium breve) of the same molecule?
The MIC was 0.25 µg/mL.

And the MIC50 (Bifidobacterium breve)?
The MIC50 was 0.25 µg/mL.

And the MIC90 (Bifidobacterium breve)?
The MIC90 was 2 µg/mL.

What about the MIC50 (Desulfovibrio piger) of the same molecule?
Its MIC50 is 4 µg/mL.

And the MIC90 (Desulfovibrio piger)?
Its MIC90 is 32 µg/mL.

And the MIC (Clostridium sp.)?
The MIC was 0.25 µg/mL.

And the MIC50 (Clostridium sp.)?
Its MIC50 is 0.25 µg/mL.

And the MIC90 (Clostridium sp.)?
The MIC90 was 1 µg/mL.

What about the MIC (Cutibacterium acnes) of the same molecule?
Its MIC is 0.25 µg/mL.

What about the MIC50 (Cutibacterium acnes) of the same molecule?
Its MIC50 is 0.25 µg/mL.

What about the MIC90 (Cutibacterium acnes) of the same molecule?
Its MIC90 is 2 µg/mL.

What about the MIC50 (Desulfovibrio sp.) of the same molecule?
The MIC50 was 4 µg/mL.

And the MIC90 (Desulfovibrio sp.)?
The MIC90 was 32 µg/mL.

What about the MIC [7] of the same molecule?
Its MIC is 0.25 µg/mL.

What about the MIC50 [7] of the same molecule?
Its MIC50 is 0.25 µg/mL.

What about the MIC90 [7] of the same molecule?
Its MIC90 is 1 µg/mL.

Which results are given for `NC[C@@H]1O[C@H](O[C@H]2[C@@H](O)[C@H](O[C@@H]3[C@@H](O)[C@H](N)C[C@H](N)[C@H]3O[C@H]3O[C@H](CN)[C@@H](O)[C@H](O)[C@H]3N)O[C@@H]2CO)[C@H](N)[C@@H](O)[C@@H]1O` [FRAMYCETIN]?
MIC50 (Fusobacterium nucleatum): 1020 µg/mL (≈ 1670 µM); MIC90 (Fusobacterium nucleatum): 1020 µg/mL (≈ 1670 µM); MIC50 [8]: 128 µg/mL (≈ 208 µM); MIC90 [8]: 1020 µg/mL (≈ 1670 µM); MIC50 (Ruminococcus obeum): 128 µg/mL (≈ 208 µM); MIC90 (Ruminococcus obeum): 512 µg/mL (≈ 833 µM); MIC50 [9]: 512 µg/mL (≈ 833 µM); MIC90 [9]: > 1020 µg/mL; MIC50 (Propionibacterium avidum): 128 µg/mL (≈ 208 µM); MIC90 (Propionibacterium avidum): 1020 µg/mL (≈ 1670 µM); MIC50 (Clostridium nexile): 256 µg/mL (≈ 416 µM); MIC90 (Clostridium nexile): 1020 µg/mL (≈ 1670 µM); MIC50 (Prevotella bivia): 512 µg/mL (≈ 833 µM); MIC90 (Prevotella bivia): 1020 µg/mL (≈ 1670 µM); MIC50 (Clostridium bartlettii): 256 µg/mL (≈ 416 µM); MIC90 (Clostridium bartlettii): 1020 µg/mL (≈ 1670 µM); MIC50 (Bifidobacterium bifidum): 128 µg/mL (≈ 208 µM); MIC90 (Bifidobacterium bifidum): 1020 µg/mL (≈ 1670 µM); MIC50 (Parabacteroides merdae): 1020 µg/mL (≈ 1670 µM); MIC90 (Parabacteroides merdae): > 1020 µg/mL; MIC50 (Clostridium leptum): 256 µg/mL (≈ 416 µM); MIC90 (Clostridium leptum): 1020 µg/mL (≈ 1670 µM); MIC50 (Clostridium symbiosum): 256 µg/mL (≈ 416 µM); MIC90 (Clostridium symbiosum): 1020 µg/mL (≈ 1670 µM); MIC50 (Fusobacterium sp.): 512 µg/mL (≈ 833 µM); MIC90 (Fusobacterium sp.): > 1020 µg/mL; MIC50 (Schaalia odontolytica): 128 µg/mL (≈ 208 µM); MIC90 (Schaalia odontolytica): 1020 µg/mL (≈ 1670 µM); MIC50 (Lactobacillus jensenii): 128 µg/mL (≈ 208 µM); MIC90 (Lactobacillus jensenii): 1020 µg/mL (≈ 1670 µM); MIC50 (Flavonifractor plautii): 256 µg/mL (≈ 416 µM); MIC90 (Flavonifractor plautii): 512 µg/mL (≈ 833 µM); MIC50 (Bifidobacterium dentium): 128 µg/mL (≈ 208 µM); MIC90 (Bifidobacterium dentium): 1020 µg/mL (≈ 1670 µM); MIC50 (Clostridium cadaveris): 256 µg/mL (≈ 416 µM); MIC90 (Clostridium cadaveris): 1020 µg/mL (≈ 1670 µM); MIC50 [10]: 128 µg/mL (≈ 208 µM); MIC90 [10]: 128 µg/mL (≈ 208 µM); MIC50 (Clostridium bolteae [11]): 256 µg/mL (≈ 416 µM); MIC90 (Clostridium bolteae [11]): 1020 µg/mL (≈ 1670 µM)
